Measurements: ChEMBL document CHEMBL3885861, “Open TG-GATES”

Species on record: Rattus norvegicus
Experiment: Open TG-GATES - Regimen: Single
Type: toxicity, organism-based, Sprague-Dawley
Parameters: regimen Single, gender Male, age 6 weeks
Details: in vivo, po, 1000 mg/kg, route gavage, dose level High; for APTT / Bas / Eos / Fbg / Hb / Ht / Lym / MCH / MCHC / MCV / Mono / Neu / PT / Plat / RBC / Ret / WBC: tissue Blood; for KIDNEY_L / KIDNEY_R / KIDNEY_TOTAL: tissue Kidney; for LIVER: tissue Liver; for A/G / ALP / ALT / AST / BUN / CRE / Ca / Cl / DBIL / GLC / IP / K / LDH / Na / PL / RALB / TBIL / TC / TG / TP / gamma-GTP: tissue Plasma

C[C@H]1O[C@H](O[C@H]2[C@H](O)[C@@H](O)[C@@H](O[C@H]3[C@H](O)[C@@H](O)C(O)O[C@@H]3CO)O[C@@H]2CO)[C@H](O)[C@@H](O)[C@@H]1N[C@H]1C=C(CO)[C@@H](O)[C@H](O)[C@H]1O (some centres not stated) [ACARBOSE]
TERMINAL_BW (3 h): 197.2 g
APTT (3 h): 17.5 s
Bas (3 h): 0%
Eos (3 h): 1%
Fbg (3 h): 289.2 mg/dL
Hb (3 h): 13.7 g/dL
Ht (3 h): 42%
Lym (3 h): 82.4%
MCH (3 h): 20.7 pg
MCHC (3 h): 32.7%
MCV (3 h): 63.3 fL
Mono (3 h): 2.2%
Neu (3 h): 13.8%
PT (3 h): 13.2 s
Plat (3 h): 116 x10_4/uL
RBC (3 h): 664 x10_4/ul
Ret (3 h): 8%
WBC (3 h): 88.8 x10_2/uL
KIDNEY_L (3 h): 0.9 g
KIDNEY_R (3 h): 0.9 g
KIDNEY_TOTAL (3 h): 1.7 g
LIVER (3 h): 8.2 g
A/G (3 h): 0.9
ALP (3 h): 1484.6 IU/L
ALT (3 h): 38 IU/L
AST (3 h): 73.6 IU/L
BUN (3 h): 10.6 mg/dL
CRE (3 h): 0.2 mg/dL
Ca (3 h): 11 mg/dL
Cl (3 h): 104.4 meq/L
DBIL (3 h): 0.004 mg/dL
GLC (3 h): 166.2 mg/dL
IP (3 h): 10 mg/dL
K (3 h): 4 meq/L
LDH (3 h): 62.6 IU/L
Na (3 h): 141.4 meq/L
PL (3 h): 131.4 mg/dL
RALB (3 h): 2.5 g/dL
TBIL (3 h): 0.054 mg/dL
TC (3 h): 71.4 mg/dL
TG (3 h): 45.2 mg/dL
TP (3 h): 5.2 g/dL
gamma-GTP (3 h): 1 IU/L
TERMINAL_BW (6 h): 198.5 g
APTT (6 h): 17.1 s
Bas (6 h): 0%
Eos (6 h): 1%
Fbg (6 h): 266.4 mg/dL
Hb (6 h): 13.3 g/dL
Ht (6 h): 41.1%
Lym (6 h): 74.8%
MCH (6 h): 20.9 pg
MCHC (6 h): 32.5%
MCV (6 h): 64.2 fL
Mono (6 h): 3%
Neu (6 h): 20.2%
PT (6 h): 13.5 s
Plat (6 h): 118.8 x10_4/uL
RBC (6 h): 640.4 x10_4/ul
Ret (6 h): 8.2%
WBC (6 h): 81.7 x10_2/uL
KIDNEY_L (6 h): 0.9 g
KIDNEY_R (6 h): 0.9 g
KIDNEY_TOTAL (6 h): 1.8 g
LIVER (6 h): 7.8 g
A/G (6 h): 0.9
ALP (6 h): 1359.2 IU/L
ALT (6 h): 34.4 IU/L
AST (6 h): 73.8 IU/L
BUN (6 h): 9.4 mg/dL
CRE (6 h): 0.2 mg/dL
Ca (6 h): 10.6 mg/dL
Cl (6 h): 104 meq/L
DBIL (6 h): 0.004 mg/dL
GLC (6 h): 167.2 mg/dL
IP (6 h): 10 mg/dL
K (6 h): 4 meq/L
LDH (6 h): 61.6 IU/L
Na (6 h): 140.4 meq/L
PL (6 h): 128.8 mg/dL
RALB (6 h): 2.4 g/dL
TBIL (6 h): 0.066 mg/dL
TC (6 h): 72.2 mg/dL
TG (6 h): 35.4 mg/dL
TP (6 h): 5 g/dL
gamma-GTP (6 h): 1 IU/L
TERMINAL_BW (9 h): 195.6 g
APTT (9 h): 17 s
Bas (9 h): 0.4%
Eos (9 h): 0.8%
Fbg (9 h): 306 mg/dL
Hb (9 h): 13.6 g/dL
Ht (9 h): 41.9%
Lym (9 h): 78.2%
MCH (9 h): 20.8 pg
MCHC (9 h): 32.3%
MCV (9 h): 64.2 fL
Mono (9 h): 2.2%
Neu (9 h): 18%
PT (9 h): 13.4 s
Plat (9 h): 117.8 x10_4/uL
RBC (9 h): 654.4 x10_4/ul
Ret (9 h): 7.9%
WBC (9 h): 87.1 x10_2/uL
KIDNEY_L (9 h): 0.9 g
KIDNEY_R (9 h): 0.9 g
KIDNEY_TOTAL (9 h): 1.8 g
LIVER (9 h): 7.4 g
A/G (9 h): 0.9
ALP (9 h): 1457.4 IU/L
ALT (9 h): 36 IU/L
AST (9 h): 75.8 IU/L
BUN (9 h): 8.8 mg/dL
CRE (9 h): 0.2 mg/dL
Ca (9 h): 10.6 mg/dL
Cl (9 h): 105.2 meq/L
DBIL (9 h): 0.002 mg/dL
GLC (9 h): 168.8 mg/dL
IP (9 h): 10.1 mg/dL
K (9 h): 3.8 meq/L
LDH (9 h): 67.2 IU/L
Na (9 h): 142 meq/L
PL (9 h): 119 mg/dL
RALB (9 h): 2.5 g/dL
TBIL (9 h): 0.064 mg/dL
TC (9 h): 70.8 mg/dL
TG (9 h): 24 mg/dL
TP (9 h): 5.3 g/dL
gamma-GTP (9 h): 1.2 IU/L
TERMINAL_BW (24 h): 212.7 g
APTT (24 h): 18.7 s
Bas (24 h): 0%
Eos (24 h): 1.2%
Fbg (24 h): 291.4 mg/dL
Hb (24 h): 13.4 g/dL
Ht (24 h): 40.9%
Lym (24 h): 72.2%
MCH (24 h): 20.9 pg
MCHC (24 h): 32.6%
MCV (24 h): 64.1 fL
Mono (24 h): 2.8%
Neu (24 h): 23%
PT (24 h): 13 s
Plat (24 h): 118.2 x10_4/uL
RBC (24 h): 638.4 x10_4/ul
Ret (24 h): 7.9%
WBC (24 h): 103.5 x10_2/uL
KIDNEY_L (24 h): 0.9 g
KIDNEY_R (24 h): 0.9 g
KIDNEY_TOTAL (24 h): 1.8 g
LIVER (24 h): 9.8 g
A/G (24 h): 0.9
ALP (24 h): 1691 IU/L
ALT (24 h): 44.4 IU/L
AST (24 h): 75.4 IU/L
BUN (24 h): 14.6 mg/dL
CRE (24 h): 0.2 mg/dL
Ca (24 h): 10.7 mg/dL
Cl (24 h): 105.6 meq/L
DBIL (24 h): 0.01 mg/dL
GLC (24 h): 173.4 mg/dL
IP (24 h): 7.9 mg/dL
K (24 h): 4 meq/L
LDH (24 h): 66.2 IU/L
Na (24 h): 142.8 meq/L
PL (24 h): 132.6 mg/dL
RALB (24 h): 2.6 g/dL
TBIL (24 h): 0.06 mg/dL
TC (24 h): 72.2 mg/dL
TG (24 h): 70.8 mg/dL
TP (24 h): 5.5 g/dL
gamma-GTP (24 h): 1 IU/L
